Assay results published in patent US20220370416A1, “COMPOUNDS AND METHODS FOR TARGETED DEGRADATION OF KRAS” (Arvinas Operations, Inc., priority 2020, published 2022).

Key:
Assay type in all cases: cell-based
KRAS^G12C [1] = biological target: T1, KRAS^G12C (Homo sapiens, UniProt P01116, G12C); assay: Engagement and degradation of endogenous KRAS^G12C in NCI-H2030 cells (blot quantitation); set-up: MRTX849-VHL bifunctional compounds engage and degrade endogenous KRAS^G12C in NCI-H2030 cells; endogenous in cells; host or cells: NCI-H2030
KRAS^G12C [2] = biological target: T1, KRAS^G12C; assay: KRAS^G12C degradation in heterozygous H358 cells; set-up: endogenous in cells; host or cells: NCI-H358; details: heterozygous H358 cells (FIG. 4A)
KRAS^G12C [3] = biological target: T1, KRAS^G12C; assay: KRAS^G12C engagement and degradation by immunoblot in NCI-H2030 cells; set-up: MRTX849-VHL bifunctional compounds engage and degrade endogenous KRAS^G12C in NCI-H2030 cells; endogenous in cells; host or cells: NCI-H2030, NCI-H358, MIA PaCa-2, SW1573, NCI-H23; details: for KRAS, two-way ANOVA significance vs DMSO: FIG. 9A
Procedure: NCI-H2030 (CRL-5914), MIA PaCa-2 (CRL-1420), NCI-H23 (CRL-5800), NCI-H358 (CRL-5807), and HCT-116 (CCL-247) cells were obtained from ATCC, expanded immediately, and frozen down. Vials were thawed and used within 20 passages. SW1573 cells were a gift from Arvinas and were handled in the same manner. NCI-H2030, NCI-H23, and NCI-H358 were cultured in RPMI (ATCC30-2001) supplemented with 10% FBS (Biological Industries; cat. no. S1480) and 1% Penicillin-Streptomycin (ThermoFisher; cat. no. 15140122). HCT-116 cells were maintained in high glucose DMEM (ThermoFisher; cat. no. 11965084) supplemented as above. MIA PaCa-2 cells were cultured in high glucose DMEM supplemented with 10% FBS, 2.5% horse serum (ThermoFisher; cat. no. 26050-088; lot 2109875), and 1% Penicillin-Streptomycin. SW1573 cells were maintained in DMEM/F12 Nutrient Mix with GlutaMAX supplement (ThermoFisher; cat. no. 10565018) with 10% FBS and 1% Penicillin-Streptomycin added. DPBS (ThermoFisher; cat. no. 14190250) was used to wash cells and 0.25% Trypsin-EDTA (ThermoFisher; cat. no. […]) was used to detach cells for passaging. […] The VHL ligand was generously provided by Arvinas.
Between 2.5×10^5 and 6.0×10^5 cells were seeded into 6-well plates (Corning; cat. no. 353046). The next day, media was removed and cells were treated with 2.5 μM LC-2 for 1, 2, 4, 8, 12, or 24 hours. […] For 24-hour time course experiments, cells were treated at the indicated times and concurrently lysed in RIPA buffer supplemented as described previously. For longer time course experiments and time courses in which cells were treated with LC-2 or LC-2 Epimer, cells were concurrently treated with either compound, then lysed by scraping in RIPA buffer at the indicated time points.
Between 2.5×10^5 and 5.0×10^5 cells were seeded into 6-well plates. The next day cells were pretreated with DMSO, 500 μM or 1 mM VHL ligand, 1 μM epoxomicin, 1 μM […], or 100 nM […] bafilomycin A1 for 1 hour. Media was then removed and cells were treated with DMSO, 2.5 μM LC-2 plus DMSO, 2.5 μM LC-2 Epimer plus DMSO, or co-treated with 2.5 μM LC-2 and the corresponding competitor/inhibitor. H2030 cells were treated for 4 hours and H23 cells were treated for 24 hours, after which cells were lysed by scraping in RIPA buffer supplemented as described previously.
Cell lysates were clarified at 21000×g for 15 mins at 4° C. Protein levels were quantified using a 50:1 mixture of bicinchoninic acid solution (Millipore Sigma; cat. no. B9643) and 4% (w/v) copper(II) sulfate solution (Millipore Sigma; cat. no. C2284) incubated at 37° C. for 30 mins. Absorbance values at 560 nm were read on an EnVision 2101 Multilabel Reader (PerkinElmer). Proteins were separated using 26 well Criterion TGX precast 4-15% (cat. no. 5671085) or 8-16% (cat. no. 5671105) gradient midi gels. After separation, proteins were transferred to nitrocellulose or PVDF membranes at 76 V for 2 hours at 4° C. Blots were then blocked in 5% milk in tris-buffered saline with Tween-20 (TBST; 20 mM Tris, 150 mM NaCl, 0.02% Tween-20). After blocking, blots were incubated in primary antibody overnight (12-18 hours) at 4° C. or for 2 hours at room temperature with mild agitation at the manufacturer's indicated dilution in either 5% milk or 5% BSA in TBST. Blots were then washed thrice with TBST for 5 mins at room temperature. After washing, blots were incubated with 1:5,000-1:10,000 of donkey anti-rabbit (GE Life Sciences; NA934) or sheep anti-mouse (GE Life Sciences; NA931) secondary antibody diluted in 5% milk for 1 hour at room temperature with mild agitation. Blots were again washed thrice with TBST for 5 mins. Chemiluminescent signal was generated using Amersham ECL Prime Western Blotting Detection Reagant (GE Life Sciences; cat. no. RPN2232) or SuperSignal West Femto Maximum Sensitivity Substrate (ThermoFisher; cat. no. 34095). Images were obtained using a Bio-Rad ChemiDoc Imager.

[4] = NCI-H2030, homozygous KRAS^G12C

Compound: C=C(F)C(=O)N1CCN(c2nc(OC[C@@H]3CCCN3CCCOCCC(=O)N[C@H](C(=O)N3C[C@@H](O)C[C@H]3C(=O)NCc3ccc(-c4scnc4C)cc3)C(C)(C)C)nc3c2CCN(c2cccc4cccc(Cl)c24)C3)C[C@@H]1CC#N [LC-2 Epimer, (2S,4S)-1-((S)-2-(3-(3-((S)-2-(((7-(8-chloronaphthalen-1-yl)-4-((S)-3-(cyanomethyl)-4-(2-fluoroacryloyl)piperazin-1-yl)-5,6,7,8-tetrahydropyrido[3,4-d]pyrimidin-2-yl)oxy)methyl)pyrrolidin-1-yl)propoxy)propanamido)-3,3-dimethylbutanoyl)-4-hydroxy-N-(4-(4-methylthiazol-5-yl)benzyl)pyrrolidine-2-carboxamide]
- induction of KRAS^G12C degradation (KRAS^G12C [1]; 2.5 μM (FIG. 5A)): does not induce KRAS^G12C degradation
- induction of KRAS^G12C degradation (KRAS^G12C [2]): not
- earliest time KRAS^G12C binding seen (KRAS^G12C [3]; NCI-H2030, 2.5 μM): 1 h
- KRAS engagement versus degradation (KRAS^G12C [3]; NCI-H2030, 2.5 μM, 4 hours): only KRAS engagement was observed

Compound: C=C(F)C(=O)N1CCN(c2nc(OC[C@@H]3CCCN3CCCOCCC(=O)N[C@H](C(=O)N3C[C@H](O)C[C@H]3C(=O)NCc3ccc(-c4scnc4C)cc3)C(C)(C)C)nc3c2CCN(c2cccc4cccc(Cl)c24)C3)C[C@@H]1CC#N [LC-2, (2S,4R)-1-((S)-2-(3-(3-((S)-2-(((7-(8-chloronaphthalen-1-yl)-4-((S)-3-(cyanomethyl)-4-(2-fluoroacryloyl)piperazin-1-yl)-5,6,7,8-tetrahydropyrido[3,4-d]pyrimidin-2-yl)oxy)methyl)pyrrolidin-1-yl)propoxy)propanamido)-3,3-dimethylbutanoyl)-4-hydroxy-N-(4-(4-methylthiazol-5-yl)benzyl)pyrrolidine-2-carboxamide]
- rescue of induced KRAS^G12C degradation (mechanism) (KRAS^G12C [1]; VHL ligand competition, epoxomicin, MLN924 (FIG. 5A)): rescued by VHL ligand competition, proteasome inhibition with epoxomicin (Epox), and neddylation inhibition with MLN924 (MLN)
- degradation of KRAS^G12C (KRAS^G12C [1]; dose response (FIG. 2C)): degrades KRAS^G12C in a dose dependent manner
- maximal KRAS^G12C degradation maintained up to (KRAS^G12C [1]; time course (FIG. 6A)): 24 h
- time to maximal KRAS^G12C degradation (KRAS^G12C [1]; time course (FIG. 6A)): ≤ 8 h
- induction of KRAS^G12C degradation (KRAS^G12C [2]): induces KRAS^G12C degradation
- Dmax (KRAS^G12C [3]; NCI-H2030): > 75%
- KRAS, two-way ANOVA significance vs DMSO (KRAS^G12C [3]; NCI-H2030, 0.1 μM): N.S.
- KRAS, two-way ANOVA significance vs DMSO (KRAS^G12C [3]; NCI-H2030, 0.25 μM): N.S.
- earliest time KRAS^G12C binding seen (KRAS^G12C [3]; NCI-H2030, 2.5 μM): 1 h
- time to maximum degradation (KRAS^G12C [3]; NCI-H2030, 2.5 μM): ≤ 8 h
- KRAS degradation (KRAS^G12C [3]; NCI-H2030, 2.5 μM, 4 hours): ~65%
- persistence of maximum degradation (KRAS^G12C [3]; NCI-H2030, 2.5 μM, 24 hour time course): persisted up to 24 hours
- DC50 (KRAS^G12C [3]; [4]): 590 ± 200 nM
- Dmax (KRAS^G12C [3]; [4]): >75%
- lowest concentration inducing maximal degradation of endogenous KRAS^G12C (KRAS^G12C [3]; NCI-H2030 cells): 2.5 µM
